Earlier results as cited in US20160199317A1, “ESTRADIOL CONTAINING TRANSDERMAL DRUG DELIVERY SYSTEMS AND COMPOSITIONS” (3M INNOVATIVE PROPERTIES COMPANY, priority 2013, published 2016).

Settings: background statement

In the case of C[C@]12CC[C@@H]3c4ccc(O)cc4CC[C@H]3[C@@H]1CC[C@@H]2O [estradiol, estra-1,3,5(10)-triene-3,17β-diol], the half-life is listed as “about one”.
